Data published in US10988523B2, “Modified lipidated Relaxin B chain peptides and their therapeutic use” (Sanofi, priority 2018, dated 2021).
*1 amine or outer side, *2 acyl side, *3 side chain or, on linkers, in order; H or OH if unused. Where a SMILES comes first, the peptide text is derived from it. Side-chain parts run from the residue outwards. [ ]: non-standard residue; d: D form. The star is where a group is joined. X1 = CCCCCCCCCCCCCCCCCC(=O)N[C@@H](CCC(=O)N[C@@H](CCC(=O)N[C@@H](CCC(=O)NCCCC[C@H](NC(=O)COCC(=O)NCCCOCCOCCOCCCNC(=O)COCC(=O)NCCCOCCOCCOCCCN*)C(N)=O)C(=O)O)C(=O)O)C(=O)O; γGlu = O=C(O)[C@H](CCC(=O)[*:2])N[*:1]; Palmitoyl = CCCCCCCCCCCCCCCC(=O)*; Nle = CCCC[C@H](N)C(=O)O; AEEA = NCCOCCOCC(=O)O; Aib = CC(C)(N)C(=O)O

Tests used:
[1] = Stability testing of peptides in rat plasma or blood; type: in vitro ADME; conditions: 37° C.; for Rat plasma stability % remaining T = 0: rat plasma or blood, T = 0 (reference), 5 μM
Method: (§1) Prior to the testing of stability in plasma (or blood) of a peptide batch, its purity (HPLC-UV) was determined.
(§2) Rat and Human plasma: anti-coagulant sodium or lithium heparin.
(§3) Rat and Human blood: anti-coagulant sodium or lithium heparin. • Stock solution: • 100 μM solution of study compound in 50 mM Phosphate buffer pH 7.4. • 950 μL plasma (or blood) was pre-incubated for 5 min at 37° C. 50 μL of compound stock solution was added. Final compound concentration=5 μM. Vortex and transfer 1504, plasma (or blood) into an Eppendorf for each time point. The time points […] were carried out in duplicate for each species.
(§4) After incubation 150 μL, plasma (or blood) was extracted with 600 μL, Acetonitrile containing with 1% TFA. Then, vortexed and centrifuged 10 min at 14600 rpm. 200 μL supernatant was dried under N2. The sample was reconstituted in 200 μL of H2O/CH3CN 98/2+0.1% FA+50 ng/ml Labetalol and analyzed using the analytical system used in solubility and stability studies.
(§5) For determination of the amount of the remaining peptide, the peak areas of the target compound at t0 and each time point […] were compared, resulting in “% remaining peptide”, following the equation: % remaining peptide=[(peak area peptide time)×100]/peak area peptide t0. The stability is expressed as “% remaining peptide”.

[2] = target: T1, RXFP1 (Homo sapiens, UniProt Q9HBX9); assay: OVCAR5 cAMP assay (HTRF), RXFP1 agonist activity; type: cell-based; conditions: for EC50: OVCAR5 cells, cAMP HTRF, read-out: EC50 (nM), OVCAR 5 cells (cAMP); for Emax: OVCAR-5, maximal cAMP relative to H2-relaxin maximum (100%), read-out: EMax, OVCAR 5 cells (cAMP)
T1 construct: OVCAR5 cells expressing endogenous RXFP1; endogenous in cells; host or cells: OVCAR5 cells
T1 sequence (Q9HBX9 1-757): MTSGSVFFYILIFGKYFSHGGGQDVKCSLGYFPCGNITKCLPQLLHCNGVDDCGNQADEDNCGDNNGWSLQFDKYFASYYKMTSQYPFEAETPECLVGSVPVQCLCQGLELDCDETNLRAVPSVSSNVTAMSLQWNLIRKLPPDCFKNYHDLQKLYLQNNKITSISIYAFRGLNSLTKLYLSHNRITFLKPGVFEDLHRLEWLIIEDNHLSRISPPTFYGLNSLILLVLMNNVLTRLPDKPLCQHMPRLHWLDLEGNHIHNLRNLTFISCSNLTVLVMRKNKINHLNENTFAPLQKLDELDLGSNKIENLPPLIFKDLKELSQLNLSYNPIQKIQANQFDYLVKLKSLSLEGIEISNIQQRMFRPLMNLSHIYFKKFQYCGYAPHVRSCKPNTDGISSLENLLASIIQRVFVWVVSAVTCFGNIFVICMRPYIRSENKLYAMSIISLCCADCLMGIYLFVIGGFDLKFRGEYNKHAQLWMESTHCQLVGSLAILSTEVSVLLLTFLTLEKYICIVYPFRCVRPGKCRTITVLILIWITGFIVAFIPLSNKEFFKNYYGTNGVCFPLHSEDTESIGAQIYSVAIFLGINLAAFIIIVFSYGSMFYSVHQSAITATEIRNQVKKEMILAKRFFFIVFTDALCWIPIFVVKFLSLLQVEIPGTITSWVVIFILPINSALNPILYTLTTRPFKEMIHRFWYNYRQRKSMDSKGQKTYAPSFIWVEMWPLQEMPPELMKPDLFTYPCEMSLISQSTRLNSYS
Summary of the method: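 cAMP accumulation readout: after 1 mM IBMX for 40 min, endogenous-RXFP1 OVCAR5 cells got rising peptide concentrations without FCS, 30 min, 37° C, then lysis with HTRF cAMP reagents. Nonlinear regression gave EC50; Emax expressed relative to H2-relaxin maximum, same occasion.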

[3] = Stability testing of peptides in human plasma or blood; type: in vitro ADME; conditions: 37° C.; for Human Plasma stability % remaining T = 0: human plasma or blood, T = 0 (reference), 5 μM
Method: as §1, §2, §3, §4, §5

[4] = Pharmacokinetic (PK) determination after i.v. or s.c. administration to rats; type: in vivo, Sprague Dawley rats; conditions: Sprague Dawley, Rat PK; for C0 / half-life: iv, 1 mg/kg i.v.; for C0: extrapolated plasma concentration at t=0, read-out: C0; for half-life / Cmax / Tmax / bioavailability: plasma; for half-life: read-out: T½ (converted); for Cmax / Tmax: sc, 3 mg/kg s.c.; for bioavailability: subcutaneous, 3 mg/kg s.c. vs 1 mg/kg i.v., dose-corrected AUC ratio
Summary of the method: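 Non-compartmental analysis of plasma LC/MS data (protein precipitation, BLQ taken as zero) gave T½, C0 (i.v.), Cmax/Tmax (s.c.) and F% from dose-corrected AUCs. Dosing: 3 mg/kg s.c. or 1 mg/kg i.v. in PBS to Sprague Dawley rats, purity- and salt-corrected.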

[5] = rat plasma, read-out: Rat plasma stability % remaining 1 h
[6] = rat plasma, read-out: Rat plasma stability % remaining 4 h
[7] = human plasma, read-out: Human Plasma stability % remaining 1 h
[8] = human plasma, read-out: Human Plasma stability % remaining 4 h

Structure (SMILES) | Rat plasma stability % remaining T = 0 [1] [%] | remaining at 1 h, 5 µM [1, 5] [%] | remaining at 4 h, 5 µM [1, 6] [%] | EC50 [2] [nM] | Emax [2] [%] | Human Plasma stability % remaining T = 0 [3] [%] | remaining at 1 h, 5 µM [3, 7] [%] | remaining at 4 h, 5 µM [3, 8] [%] | remaining at 1 h, 5 µM ([1]; whole blood, rat blood, read-out: Rat stability in blood % remaining 1 h) [%] | remaining at 4 h, 5 µM ([1]; whole blood, rat blood, read-out: Rat stability in blood % remaining 4 h) [%] | remaining at 1 h, 5 µM ([3]; whole blood, human blood, read-out: Human stability in blood % remaining 1 h) [%] | remaining at 4 h, 5 µM ([3]; whole blood, human blood, read-out: Human stability in blood % remaining 4 h) [%] | C0 [4] [µM] | half-life [4] [min] | Cmax [4] [nM] | Tmax [4] [h] | bioavailability [4] [%]
CCCCCCCCCCCCCCCC(=O)N[C@@H](CCC(=O)NCCCC[C@H](NC(=O)CC[C@H](NC(=O)CC[C@H](NC(=O)CC[C@H](NC(=O)COCCOCCNC(=O)COCCOCCNC(=O)COCCOCCNC(=O)[C@H](CCCCN)NC(=O)[C@H](CCCCN)NC(=O)[C@H](CCCNC(=N)N)NC(=O)C(C)(C)NC(=O)[C@H](CO)NC(=O)[C@H](Cc1c[nH]c2ccccc12)NC(=O)[C@@H](NC(=O)[C@H](CO)NC(=O)[C@H](CCCC)NC(=O)CNC(=O)[C@H](CCC(=O)O)NC(=O)C(C)(C)NC(=O)C(C)(C)NC(=O)[C@@H](NC(=O)[C@H](CCC(N)=O)NC(=O)[C@H](C)NC(=O)[C@H](CCCNC(=N)N)NC(=O)[C@@H](NC(=O)[C@H](CCCCN)NC(=O)[C@H](CCC(=O)O)NC(=O)[C@H](CCCNC(=N)N)NC(=O)CNC(=O)[C@H](CCC(=O)O)NC(=O)[C@H](CC(C)C)NC(C)=O)C(C)C)[C@@H](C)CC)[C@@H](C)O)C(=O)O)C(=O)O)C(=O)O)C(N)=O)C(=O)O [compound 110] (Ac-LEGREKVRAQI[Aib][Aib]EG[Nle]STWS[Aib]RKK[AEEA][AEEA][AEEA][γGlu][γGlu][γGlu]K([γGlu-Palmitoyl])-NH2) | 100 | 96 | 98 | 0.17 | 80 | 100 | 101 | 114 | – | – | – | – | – | – | – | – | –
CCCCCCCCCCCCCCCC(=O)N[C@@H](CCC(=O)N[C@@H](CCC(=O)N[C@@H](CCC(=O)NCCCC[C@H](NC(=O)[C@H](CCCCN)NC(=O)[C@H](CCCNC(=N)N)NC(=O)C(C)(C)NC(=O)[C@H](CO)NC(=O)[C@H](Cc1c[nH]c2ccccc12)NC(=O)[C@@H](NC(=O)[C@H](CO)NC(=O)[C@H](CCSC)NC(=O)CNC(=O)[C@H](CCC(=O)O)NC(=O)C(C)(C)NC(=O)C(C)(C)NC(=O)[C@@H](NC(=O)[C@H](CCC(N)=O)NC(=O)[C@H](C)NC(=O)[C@H](CCCNC(=N)N)NC(=O)[C@@H](NC(=O)[C@H](CCCCN)NC(=O)[C@H](CCC(=O)O)NC(=O)[C@H](CCCNC(=N)N)NC(=O)CNC(=O)[C@H](CCC(=O)O)NC(=O)[C@H](CC(C)C)NC(C)=O)C(C)C)[C@@H](C)CC)[C@@H](C)O)C(N)=O)C(=O)O)C(=O)O)C(=O)O [compound 7] (Ac-LEGREKVRAQI[Aib][Aib]EGMSTWS[Aib]RKK([γGlu-γGlu-γGlu-Palmitoyl])-NH2) | 100 | – | – | 17.6 | 87 | 100 | – | – | 110 | 93 | 110 | 91 | 4.77 | 258 | 1700 | 6 | 53
CCCCCCCCCCCCCCCCCC(=O)N[C@@H](CCC(=O)N[C@@H](CCC(=O)N[C@@H](CCC(=O)NCCCC[C@H](NC(=O)COCC(=O)NCCCOCCOCCOCCCNC(=O)COCC(=O)NCCCOCCOCCOCCCNC(=O)[C@H](CCCCNC(C)=O)NC(=O)[C@H](CCCCN)NC(=O)[C@H](CCCNC(=N)N)NC(=O)C(C)(C)NC(=O)[C@H](CO)NC(=O)[C@H](Cc1c[nH]c2ccccc12)NC(=O)[C@@H](NC(=O)[C@H](CO)NC(=O)[C@H](CCCC)NC(=O)CNC(=O)[C@H](CCC(=O)O)NC(=O)C(C)(C)NC(=O)C(C)(C)NC(=O)[C@@H](NC(=O)[C@H](CCCCNC(C)=O)NC(=O)[C@H](C)NC(=O)[C@H](CCCNC(=N)N)NC(=O)[C@@H](NC(=O)[C@H](CCCCN)NC(=O)[C@H](CCC(=O)O)NC(=O)[C@H](CCCNC(=N)N)NC(=O)CNC(=O)[C@H](CCC(=O)O)NC(=O)[C@H](CC(C)C)NC(C)=O)C(C)C)[C@@H](C)CC)[C@@H](C)O)C(N)=O)C(=O)O)C(=O)O)C(=O)O [compound 19] (Ac-LEGREKVRAK(Ac)I[Aib][Aib]EG[Nle]STWS[Aib]RKK(Ac)-X1) | 100 | 99 | 89 | 0.15 | 96 | 100 | 86 | 90 | – | – | – | – | – | – | – | – | –
CCCCCCCCCCCCCCCC(=O)N[C@@H](CCC(=O)NCCCC[C@H](NC(=O)CC[C@H](NC(=O)CC[C@H](NC(=O)CC[C@H](NC(=O)COCCOCCNC(=O)COCCOCCNC(=O)COCCOCCNC(=O)[C@H](CCCCN)NC(=O)[C@H](CCCCN)NC(=O)[C@H](CCCCN)NC(=O)[C@H](CCCNC(=N)N)NC(=O)C(C)(C)NC(=O)[C@H](CO)NC(=O)[C@H](Cc1c[nH]c2ccccc12)NC(=O)[C@@H](NC(=O)[C@H](CO)NC(=O)[C@H](CCCC)NC(=O)CNC(=O)[C@H](CCC(=O)O)NC(=O)C(C)(C)NC(=O)C(C)(C)NC(=O)[C@@H](NC(=O)[C@H](CCC(N)=O)NC(=O)[C@H](C)NC(=O)[C@H](CCCNC(=N)N)NC(=O)[C@@H](NC(=O)[C@H](CCCCN)NC(=O)[C@H](CCC(=O)O)NC(=O)[C@H](CCCNC(=N)N)NC(=O)CNC(=O)[C@H](CCC(=O)O)NC(=O)[C@H](CC(C)C)NC(C)=O)C(C)C)[C@@H](C)CC)[C@@H](C)O)C(=O)O)C(=O)O)C(=O)O)C(N)=O)C(=O)O [compound 107] (Ac-LEGREKVRAQI[Aib][Aib]EG[Nle]STWS[Aib]RKKK[AEEA][AEEA][AEEA][γGlu][γGlu][γGlu]K([γGlu-Palmitoyl])-NH2) | 100 | 93 | 110 | 0.63 | 85 | 100 | 98 | 106 | – | – | – | – | 2.6 | 150 | 1600 | 8 | 27
